Reference: paper PMC6835763, “Influence of Short Cationic Lipopeptides with Fatty Acids of Different Chain Lengths on Bacterial Biofilms Formed on Polystyrene and Hydrogel Surfaces” (Pharmaceutics, 2019)
Values joined by “and” are separate entries in the source; they are usually repeats but may differ in a detail not shown here. Identical values can stand only once.

Experiments:
Format in all cases: cell-based
[1] = test system: Staphylococcus epidermidis ATCC 14990; settings: 5 × 10^8 CFU/mL in MHB II, exposure 1–512 μg/mL for 24 h at 37 °C, resazurin, triplicate
[2] = test system: Staphylococcus aureus ATCC 25923; settings: 5 × 10^8 CFU/mL in MHB II, exposure 1–512 μg/mL for 24 h at 37 °C, resazurin, triplicate
[3] = test system: Pseudomonas aeruginosa ATCC 9027; settings: 5 × 10^8 CFU/mL in MHB II, exposure 1–512 μg/mL for 24 h at 37 °C, resazurin, triplicate
[4] = test system: Enterococcus faecalis ATCC 29212; settings: 5 × 10^8 CFU/mL in MHB II, exposure 1–512 μg/mL for 24 h at 37 °C, resazurin, triplicate
[5] = test system: Proteus mirabilis PCM 543; settings: 5 × 10^8 CFU/mL in MHB II, exposure 1–512 μg/mL for 24 h at 37 °C, resazurin, triplicate
[6] = test system: Escherichia coli ATCC 25922
[7] = test system: Staphylococcus epidermidis ATCC 14990; settings: MHB II, ca. 5 × 10^6 CFU/mL, 96-well PS, 1–512 μg/mL, 37 °C, 18 h, triplicate
How it was run: (§1)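 Broth microdilution per CLSI in Mueller Hinton Broth II; inocula from overnight cultures grown at 37 °C. Plates incubated aerobically 18 h at 37 °C, with growth and sterility controls, in triplicate. MIC (μg/mL) taken as lowest concentration inhibiting visible growth.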

[8] = test system: Staphylococcus aureus ATCC 25923; settings: MHB II, ca. 5 × 10^6 CFU/mL, 96-well PS, 1–512 μg/mL, 37 °C, 18 h, triplicate
How it was run: as §1

[9] = test system: Pseudomonas aeruginosa ATCC 9027; settings: MHB II, ca. 5 × 10^6 CFU/mL, 96-well PS, 1–512 μg/mL, 37 °C, 18 h, triplicate
How it was run: as §1

[10] = test system: Enterococcus faecalis ATCC 29212; settings: MHB II, ca. 5 × 10^6 CFU/mL, 96-well PS, 1–512 μg/mL, 37 °C, 18 h, triplicate
How it was run: as §1

[11] = test system: Proteus mirabilis PCM 543; settings: MHB II, ca. 5 × 10^6 CFU/mL, 96-well PS, 1–512 μg/mL, 37 °C, 18 h, triplicate
How it was run: as §1

[12] = test system: Escherichia coli ATCC 25922; settings: MHB II, ca. 5 × 10^6 CFU/mL, 96-well PS, 1–512 μg/mL, 37 °C, 18 h, triplicate
How it was run: as §1

[13] = test system: Staphylococcus epidermidis ATCC 14990; experiment: MBFIC assay (biofilm formation inhibition, resazurin)
[14] = test system: Staphylococcus aureus ATCC 25923; experiment: as above; settings: ca. 5 × 10^8 CFU/mL in MHB II, 37 °C, 18 h, resazurin, visual, triplicate
[15] = test system: Pseudomonas aeruginosa ATCC 9027; experiment: as above; settings: ca. 5 × 10^8 CFU/mL in MHB II, 37 °C, 18 h, visual, triplicate
[16] = test system: Enterococcus faecalis ATCC 29212; experiment: as above; settings: ca. 5 × 10^8 CFU/mL in MHB II, 37 °C, 18 h, visual, triplicate
[17] = test system: Proteus mirabilis PCM 543; experiment: as above; settings: ca. 5 × 10^8 CFU/mL in MHB II, 37 °C, 18 h, visual, triplicate
[18] = test system: Escherichia coli ATCC 25922; experiment: as above; settings: ca. 5 × 10^8 CFU/mL in MHB II, 37 °C, 18 h, visual, triplicate
[19] = 24 h biofilm on 96-well flat bottom PS
[20] = 24 h biofilm on contact lenses (CL) in 24-well plates
[21] = contact lenses (CL, Etafilcon A hydrogel) in 24-well plates
[22] = polystyrene plates (PS), 96-well

(C10)2-KKKK-NH2 [Lipopeptide 9]
MBEC S. epidermidis, PS [1, 19]: 16 µg/mL | MBEC S. epidermidis, CL [1, 20]: 64 µg/mL | MBEC S. aureus, PS [2, 19]: 64 µg/mL | MBEC S. aureus, CL [2, 20]: 128 µg/mL | MBEC P. aeruginosa, PS [3, 19]: 512 µg/mL | MBEC P. aeruginosa, CL [3, 20]: 256 µg/mL | MBEC E. faecalis, PS [4, 19]: 32 µg/mL | MBEC E. faecalis, CL [4, 20]: 128 µg/mL | MBEC P. mirabilis, PS [5, 19]: >512/>512 μg/mL | MBEC P. mirabilis, CL [5, 20]: >512/>512 μg/mL | MBEC E. coli, PS ([6]; 24 h biofilm on 96-well flat bottom PS, 5 × 10^8 CFU/mL in MHB II, exposure 1–512 μg/mL for 24 h at 37 °C, resazurin, triplicate): 64 µg/mL | MBEC E. coli, CL ([6]; 24 h biofilm on contact lenses (CL) in 24-well plates, 5 × 10^8 CFU/mL in MHB II, exposure 1–512 μg/mL for 24 h at 37 °C, resazurin, triplicate): 128 µg/mL | concentrations eliminating the EC biofilm (MBEC range) ([6]; range over PS and CL): 64 to 128 µg/mL | MIC S. epidermidis [7]: 2 µg/mL | MIC S. aureus [8]: 8 µg/mL | MIC P. aeruginosa [9]: 16 µg/mL | MIC E. faecalis [10]: 16 µg/mL | MIC P. mirabilis [11]: 512 µg/mL | MIC E. coli [12]: 16 µg/mL | MBFIC S. epidermidis, CL ([13]; contact lenses (CL, Etafilcon A hydrogel) in 24-well plates, ca. 5 × 10^8 CFU/mL in MHB II, 37 °C, 18 h, resazurin, visual, triplicate): 16 µg/mL | MBFIC S. epidermidis, PS ([13]; polystyrene plates (PS), 96-well, ca. 5 × 10^8 CFU/mL in MHB II, 37 °C, 18 h, resazurin, visual, triplicate): 8 µg/mL | concentrations inhibiting formation of SE biofilm (MBFIC range) ([13]; range over PS and CL): 8 to 16 µg/mL | MBFIC S. aureus, CL [14, 21]: 16 µg/mL | MBFIC S. aureus, PS [14, 22]: 8 µg/mL | MBFIC P. aeruginosa, CL [15, 21]: 64 μg/mL and 64/64 μg/mL | MBFIC P. aeruginosa, PS [15, 22]: 64 μg/mL and 64/64 μg/mL | MBFIC E. faecalis, CL [16, 21]: 64/64 μg/mL | MBFIC E. faecalis, PS [16, 22]: 64/64 μg/mL | MBFIC P. mirabilis, CL [17, 21]: 512/512 μg/mL | MBFIC P. mirabilis, PS [17, 22]: 512/512 μg/mL | MBFIC E. coli, CL [18, 21]: 64 µg/mL | MBFIC E. coli, PS [18, 22]: 128 µg/mL
